# According to patent US20200255884A1, “METHOD OF DETECTION OF DNA END(S) AND ITS USE” (INTODNA SP. Z O.O., priority 2017, published 2020):
# System: HeLa 21-4 cells
# Assay: Combination of Procedures 1 and 2 for detection of DNA breaks in isolated chromatin of HeLa cells
# Format: cell-based
# Details: H2O2 4 mM, 30 minutes; control 6.0±0.1
# Procedure: In this Example, HeLa 21-4 cells (obtained from P.R. Cook, University of Oxford) were seeded on 6-well plates and cultured for 48 hours in DMEM supplemented with 10% FBS until the culture reached 100% confluency (number of cells: 1.2×10^6 per 1 well). Next, cells were treated with the DNA damaging agent H2O2 which was added directly to the growth medium (final concentration: 4 mM). The cells were incubated at 37° C. for 30 minutes in the standard cell culture incubator with CO2 level control. The control, untreated cells and the damaged cells (H2O2) were then harvested using 0.5 ml trypsin and transferred to 1.5 ml Eppendorf tubes. Afterwards, trypsin was inactivated by adding 0.5 ml DMEM supplemented with 10% FBS. Subsequently, cells were spun down in the table top centrifuge (Eppendorf centrifuge, 5417 C, rotor: F45-30-11) (1700 rpm, 5 minutes, room temperature). The cell pellet was resuspended in 10 mM Tris (pH 8.8), a small aliquot of the cells in suspension (50 μl) was transferred to a new 1.5 ml Eppendorf tube and spun down in the table top centrifuge (1 minute, 14000 rpm, room temperature). The supernatant was discarded and the washing step in the same volume (50 μl) of 10 mM Tris (pH 8.8) was repeated (centrifugation in the table top centrifuge (1 minute, 14000 rpm, room temperature)). […]
compound,measurement,value
OO [H2O2],fluorescence intensity (mean grey value) of immobilized modified DNA,8.9±0.1 a.u.
